{
  "source": "patent US10894960B2",
  "about": "“Compositions and methods for nucleic acid transfer” (Children's Hospital Medical Center, priority 2016, dated 2021)",
  "origin": "cited, not measured here",
  "key": {"[1]": {"target": "SUR1 (Homo sapiens, UniProt Q09428)", "sequence (Q09428 whole entry, species assumed)": "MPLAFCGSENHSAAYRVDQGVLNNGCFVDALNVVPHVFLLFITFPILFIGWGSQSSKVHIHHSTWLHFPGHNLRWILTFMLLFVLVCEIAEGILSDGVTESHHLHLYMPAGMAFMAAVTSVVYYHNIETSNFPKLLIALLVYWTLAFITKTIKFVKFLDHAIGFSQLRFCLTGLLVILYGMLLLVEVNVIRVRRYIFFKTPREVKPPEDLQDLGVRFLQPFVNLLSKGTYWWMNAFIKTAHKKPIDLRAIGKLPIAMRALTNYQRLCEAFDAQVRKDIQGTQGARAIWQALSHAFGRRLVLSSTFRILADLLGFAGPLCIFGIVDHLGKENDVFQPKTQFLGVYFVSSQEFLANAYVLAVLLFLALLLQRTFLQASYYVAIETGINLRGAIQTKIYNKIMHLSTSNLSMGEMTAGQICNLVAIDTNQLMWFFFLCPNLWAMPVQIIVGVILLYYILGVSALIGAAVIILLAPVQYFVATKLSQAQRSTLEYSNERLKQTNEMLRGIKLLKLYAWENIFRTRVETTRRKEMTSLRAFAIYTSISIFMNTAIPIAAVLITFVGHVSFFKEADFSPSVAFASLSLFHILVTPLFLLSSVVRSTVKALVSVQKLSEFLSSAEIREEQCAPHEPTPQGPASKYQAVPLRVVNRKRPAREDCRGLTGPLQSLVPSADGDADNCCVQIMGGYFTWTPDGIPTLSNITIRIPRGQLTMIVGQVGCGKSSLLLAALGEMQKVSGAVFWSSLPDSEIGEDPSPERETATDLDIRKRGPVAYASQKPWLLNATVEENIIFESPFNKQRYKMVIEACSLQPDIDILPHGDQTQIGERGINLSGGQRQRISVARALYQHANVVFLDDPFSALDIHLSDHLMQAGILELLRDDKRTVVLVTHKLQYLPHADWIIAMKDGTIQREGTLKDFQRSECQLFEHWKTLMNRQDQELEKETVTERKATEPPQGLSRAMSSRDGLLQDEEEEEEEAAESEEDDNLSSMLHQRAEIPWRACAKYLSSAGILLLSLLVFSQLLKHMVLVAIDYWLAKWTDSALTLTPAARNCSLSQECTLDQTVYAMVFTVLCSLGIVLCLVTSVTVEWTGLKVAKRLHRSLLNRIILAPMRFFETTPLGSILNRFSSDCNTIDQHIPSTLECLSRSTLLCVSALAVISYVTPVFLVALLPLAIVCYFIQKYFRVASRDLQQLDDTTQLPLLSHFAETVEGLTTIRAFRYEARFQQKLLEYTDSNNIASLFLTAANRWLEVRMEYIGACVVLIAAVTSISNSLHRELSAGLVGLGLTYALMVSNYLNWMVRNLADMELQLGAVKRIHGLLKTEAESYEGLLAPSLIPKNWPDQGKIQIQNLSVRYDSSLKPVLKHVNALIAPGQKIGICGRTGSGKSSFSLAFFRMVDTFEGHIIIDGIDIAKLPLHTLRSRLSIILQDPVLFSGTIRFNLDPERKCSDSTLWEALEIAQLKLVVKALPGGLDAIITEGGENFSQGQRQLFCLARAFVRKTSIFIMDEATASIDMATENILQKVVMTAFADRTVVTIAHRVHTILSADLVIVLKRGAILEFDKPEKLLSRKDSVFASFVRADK", "sequence (Q14654 whole entry partner, species assumed)": "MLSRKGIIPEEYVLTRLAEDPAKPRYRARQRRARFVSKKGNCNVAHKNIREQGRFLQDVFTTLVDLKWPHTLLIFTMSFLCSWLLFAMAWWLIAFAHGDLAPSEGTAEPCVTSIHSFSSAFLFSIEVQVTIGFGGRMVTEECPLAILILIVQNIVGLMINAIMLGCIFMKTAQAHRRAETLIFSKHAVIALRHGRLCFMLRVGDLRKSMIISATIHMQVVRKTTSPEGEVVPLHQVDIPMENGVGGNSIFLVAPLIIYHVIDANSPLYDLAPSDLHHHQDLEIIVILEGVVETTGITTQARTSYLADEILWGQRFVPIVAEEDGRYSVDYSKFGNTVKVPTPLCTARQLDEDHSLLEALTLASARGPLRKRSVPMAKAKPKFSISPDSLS", "settings": "Target SUR1, gene symbol ABCC8"}, "[2]": {"target": "NR3A (Homo sapiens, UniProt Q8TCU5)", "sequence (Q8TCU5 24-1115, species assumed, other chains not shown)": "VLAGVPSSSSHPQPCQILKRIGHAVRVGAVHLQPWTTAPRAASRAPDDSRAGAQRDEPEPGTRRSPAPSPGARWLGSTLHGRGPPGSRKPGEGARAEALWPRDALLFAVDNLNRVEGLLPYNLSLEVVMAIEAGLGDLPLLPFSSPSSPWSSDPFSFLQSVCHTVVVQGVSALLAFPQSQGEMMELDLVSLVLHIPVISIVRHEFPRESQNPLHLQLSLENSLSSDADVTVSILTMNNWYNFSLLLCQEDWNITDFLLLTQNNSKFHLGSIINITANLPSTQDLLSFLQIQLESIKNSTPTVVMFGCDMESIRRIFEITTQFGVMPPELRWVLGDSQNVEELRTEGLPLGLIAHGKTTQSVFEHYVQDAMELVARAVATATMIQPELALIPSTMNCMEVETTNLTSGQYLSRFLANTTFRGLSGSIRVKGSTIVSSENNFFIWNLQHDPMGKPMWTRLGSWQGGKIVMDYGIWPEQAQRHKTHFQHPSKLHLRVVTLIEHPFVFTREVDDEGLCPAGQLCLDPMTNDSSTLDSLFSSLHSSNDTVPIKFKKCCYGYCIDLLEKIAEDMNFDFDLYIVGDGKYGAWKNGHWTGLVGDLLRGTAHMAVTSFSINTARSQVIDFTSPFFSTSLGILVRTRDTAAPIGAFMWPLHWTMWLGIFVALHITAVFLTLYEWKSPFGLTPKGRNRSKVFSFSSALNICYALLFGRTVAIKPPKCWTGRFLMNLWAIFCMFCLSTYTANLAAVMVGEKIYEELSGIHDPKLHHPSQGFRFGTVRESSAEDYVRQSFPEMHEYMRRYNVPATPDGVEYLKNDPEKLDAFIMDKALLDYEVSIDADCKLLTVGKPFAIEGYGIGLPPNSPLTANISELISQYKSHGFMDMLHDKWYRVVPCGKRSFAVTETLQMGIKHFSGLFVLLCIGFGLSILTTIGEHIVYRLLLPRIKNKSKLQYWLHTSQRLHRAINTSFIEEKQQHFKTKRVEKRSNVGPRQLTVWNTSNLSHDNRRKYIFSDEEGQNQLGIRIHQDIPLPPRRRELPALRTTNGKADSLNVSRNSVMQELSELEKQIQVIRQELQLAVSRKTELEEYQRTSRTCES", "settings": "Target NR3A, gene symbol GRIN3A"}, "[3]": {"target": "TOP2 beta (Homo sapiens, UniProt Q02880)", "sequence (Q02880 whole entry)": "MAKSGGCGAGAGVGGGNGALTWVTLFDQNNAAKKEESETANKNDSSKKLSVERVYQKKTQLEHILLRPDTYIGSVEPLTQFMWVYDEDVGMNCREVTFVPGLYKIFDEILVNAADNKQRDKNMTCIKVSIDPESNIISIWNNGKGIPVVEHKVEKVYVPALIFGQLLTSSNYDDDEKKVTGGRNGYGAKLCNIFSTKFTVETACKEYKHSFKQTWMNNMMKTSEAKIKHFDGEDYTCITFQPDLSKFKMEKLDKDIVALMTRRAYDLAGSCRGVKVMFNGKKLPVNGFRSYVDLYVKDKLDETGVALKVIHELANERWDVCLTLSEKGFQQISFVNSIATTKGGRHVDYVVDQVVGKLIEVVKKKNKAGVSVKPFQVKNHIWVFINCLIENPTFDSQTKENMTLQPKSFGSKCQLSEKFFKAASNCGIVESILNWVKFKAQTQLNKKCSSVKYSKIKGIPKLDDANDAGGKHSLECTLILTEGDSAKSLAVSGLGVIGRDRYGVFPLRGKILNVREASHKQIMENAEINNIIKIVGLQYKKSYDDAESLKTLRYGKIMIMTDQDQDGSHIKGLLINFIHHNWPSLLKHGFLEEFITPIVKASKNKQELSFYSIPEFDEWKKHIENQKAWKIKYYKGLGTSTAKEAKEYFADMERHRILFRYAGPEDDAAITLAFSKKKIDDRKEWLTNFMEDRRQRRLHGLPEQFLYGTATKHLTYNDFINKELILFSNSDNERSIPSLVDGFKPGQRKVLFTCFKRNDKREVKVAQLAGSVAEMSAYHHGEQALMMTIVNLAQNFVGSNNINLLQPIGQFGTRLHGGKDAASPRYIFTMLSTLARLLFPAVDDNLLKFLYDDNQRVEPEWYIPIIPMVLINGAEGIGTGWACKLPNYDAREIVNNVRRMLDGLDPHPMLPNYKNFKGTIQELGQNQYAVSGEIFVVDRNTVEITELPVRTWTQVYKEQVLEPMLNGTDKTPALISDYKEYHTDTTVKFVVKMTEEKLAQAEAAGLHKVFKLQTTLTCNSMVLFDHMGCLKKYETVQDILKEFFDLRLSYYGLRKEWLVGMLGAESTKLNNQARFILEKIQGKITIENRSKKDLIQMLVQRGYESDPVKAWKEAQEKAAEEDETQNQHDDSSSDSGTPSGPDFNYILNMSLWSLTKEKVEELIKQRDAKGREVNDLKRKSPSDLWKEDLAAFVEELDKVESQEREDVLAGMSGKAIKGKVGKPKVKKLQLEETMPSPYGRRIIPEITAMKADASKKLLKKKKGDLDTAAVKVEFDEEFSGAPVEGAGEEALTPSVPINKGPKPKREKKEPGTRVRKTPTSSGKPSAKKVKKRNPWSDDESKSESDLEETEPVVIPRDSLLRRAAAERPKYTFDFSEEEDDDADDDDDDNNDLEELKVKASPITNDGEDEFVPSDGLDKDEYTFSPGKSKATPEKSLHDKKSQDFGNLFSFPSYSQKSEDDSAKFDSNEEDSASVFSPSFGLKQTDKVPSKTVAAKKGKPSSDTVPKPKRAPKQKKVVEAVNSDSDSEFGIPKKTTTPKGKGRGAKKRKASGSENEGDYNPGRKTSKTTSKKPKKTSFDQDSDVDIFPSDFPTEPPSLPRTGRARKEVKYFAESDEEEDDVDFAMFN", "settings": "Target TOP2 beta, gene symbol TOP2B"}, "[4]": {"target": "PARP-1 (Homo sapiens, UniProt P09874)", "settings": "Target PARP-1, gene symbol PARP1"}},
  "data": [
    {"smiles": "CCOc1cc(CC(=O)N[C@@H](CC(C)C)c2ccccc2N2CCCCC2)ccc1C(=O)O", "note": "(racemic) [(R/S)-Repaglinide]", "values": [
      {"measurement": "Effect", "setting": "[1]", "result": "Inhibition"}
    ]},
    {"smiles": "CC12CC3CC(C)(C1)CC(N)(C3)C2", "note": "[Memantine]", "values": [
      {"measurement": "Effect", "setting": "[2]", "result": "Inhibition"}
    ]},
    {"smiles": "CNC1(c2ccccc2Cl)CCCCC1=O", "note": "(stereo not shown) [Ketamine]", "values": [
      {"measurement": "Effect", "setting": "[2]", "result": "Inhibition"}
    ]},
    {"smiles": "CCC1=C(C)CN(C(=O)NCCc2ccc(S(=O)(=O)NC(=O)N[C@H]3CC[C@H](C)CC3)cc2)C1=O", "note": "[Glimepiride]", "values": [
      {"measurement": "Effect", "setting": "[1]", "result": "Inhibition"}
    ]},
    {"smiles": "CO[C@@H]1[C@@H](N)[C@@H](O[C@H]2[C@H](Oc3cccc4c(O)c5c(=O)oc6ccc(C)c7c(=O)oc(c34)c5c67)O[C@H](C)[C@H](O)[C@]2(C)O)O[C@H](C)[C@@H]1O", "note": "[Elsamitrucin]", "values": [
      {"measurement": "Effect", "setting": "[3]", "result": "Inhibition"}
    ]},
    {"smiles": "COc1cc([C@@H]2c3cc4c(cc3[C@@H](CCN(C)CCN(C)C)[C@H]3COC(=O)[C@H]23)OCO4)cc(OC)c1O", "note": "[TOP53]", "values": [
      {"measurement": "Effect", "setting": "[3]", "result": "Inhibition"}
    ]},
    {"smiles": "CC1=NS(=O)(=O)c2cc(Cl)ccc2N1", "note": "[Diazoxide]", "values": [
      {"measurement": "Effect", "setting": "[1]", "result": "Activation"}
    ]},
    {"smiles": "O=[As]O[As]=O", "note": "(stereo not shown) [As(,2)O(,3)]", "values": [
      {"measurement": "Effect", "setting": "[4]", "result": "Inhibition"}
    ]},
    {"smiles": "CC(=O)c1ccc(S(=O)(=O)NC(=O)NC2CCCCC2)cc1", "note": "[Acetohexamide]", "values": [
      {"measurement": "Effect", "setting": "[1]", "result": "Activation"}
    ]},
    {"smiles": "COc1cc([C@@H]2c3cc4c(cc3[C@@H](O[C@@H]3O[C@@H]5CO[C@@H](c6cccs6)O[C@H]5[C@H](O)[C@H]3O)[C@H]3COC(=O)[C@H]23)OCO4)cc(OC)c1O", "note": "[Teniposide]", "values": [
      {"measurement": "Effect", "setting": "[3]", "result": "Inhibition"}
    ]},
    {"smiles": "C[C@@H]1O[C@@H](O[C@H]2C[C@](O)(C(=O)CO)Cc3c(O)c4c(c(O)c32)C(=O)c2ccccc2C4=O)[C@H](I)[C@H](O)[C@H]1O", "note": "[Annamycin]", "values": [
      {"measurement": "Effect", "setting": "[3]", "result": "Inhibition"}
    ]},
    {"smiles": "COc1ccc2c(c[n+](C)c3c4cc5c(cc4ccc23)OCO5)c1O", "note": "[NK109]", "values": [
      {"measurement": "Effect", "setting": "[3]", "result": "Inhibition"}
    ]},
    {"smiles": "O=C(Nc1ccc2ncccc2c1)C(=O)c1cn(Cc2ccc(Cl)cc2)c2ccccc12", "note": "[Entasobulin]", "values": [
      {"measurement": "Effect", "setting": "[3]", "result": "Inhibition"}
    ]},
    {"smiles": "Cc1cnc(NCCCN(C)C)c2c1[nH]c1ccc3cc(O)ccc3c12", "note": "[Intoplicine]", "values": [
      {"measurement": "Effect", "setting": "[3]", "result": "Inhibition"}
    ]},
    {"smiles": "COc1cc([C@@H]2c3cc4c(cc3[C@@H](O[C@@H]3O[C@@H]5CO[C@@H](C)O[C@H]5[C@H](O)[C@H]3O)[C@H]3COC(=O)[C@H]23)OCO4)cc(OC)c1O", "note": "[Etoposide]", "values": [
      {"measurement": "Effect", "setting": "[3]", "result": "Inhibition"}
    ]},
    {"smiles": "C1CCC2(C1)C1CN(CC3CC3)CC2CN(CC2CC2)C1", "note": "[Tedisamil]", "values": [
      {"measurement": "Effect", "setting": "[1]", "result": "Inhibition"}
    ]}
  ]
}
